Patent US20240277713A1 (Kadmon Corporation, LLC, priority 2022, published 2024)

Assays:
[1] = Toxicokinetic evaluation in pregnant rabbits (Example 4); type: in vivo, rabbit; conditions: for Cmax / AUC(0-t): female, New Zealand White, rabbit, plasma, po; for AUC(0-t): read-out: Mean AUC0-24 in plasma of pregnant rabbits
Experimental: The dose levels for the treated groups were 50, 125, 225, mg base/kg/day at a dose volume of 10 mL/kg. The control group received the vehicle in the same manner as the treated groups. […] Individual doses were based on the most recent body weights.
Observations of the animals included clinical signs, body weights, food consumption, and anatomical pathology including a uterine examination. […] All fetuses were given an external, visceral, and skeletal examination.

[2] = Toxicokinetic analysis in rat plasma (Example 5); type: in vivo; conditions: for Cmax / AUC(0-t): rat, plasma; for AUC(0-t): read-out: AUC0-24
Experimental: TK animals were dosed for 70 and 14 days for the males and females, respectively. Dosing of TK males and females was initiated simultaneously, continuing to euthanasia. Refrigerated daily aliquots of dosing formulations were brought to room temperature while continuously stirring for at least 30 minutes prior to dosing.

[3] = Pharmacokinetics in healthy subjects; type: in vivo, human
BCRP = molecular target: T1, BCRP (Homo sapiens, UniProt Q9UNQ0); assay: Transporter systems in vitro: BCRP; type: in vitro ADME; conditions: clinically relevant concentrations
T1 sequence (Q9UNQ0 1-655): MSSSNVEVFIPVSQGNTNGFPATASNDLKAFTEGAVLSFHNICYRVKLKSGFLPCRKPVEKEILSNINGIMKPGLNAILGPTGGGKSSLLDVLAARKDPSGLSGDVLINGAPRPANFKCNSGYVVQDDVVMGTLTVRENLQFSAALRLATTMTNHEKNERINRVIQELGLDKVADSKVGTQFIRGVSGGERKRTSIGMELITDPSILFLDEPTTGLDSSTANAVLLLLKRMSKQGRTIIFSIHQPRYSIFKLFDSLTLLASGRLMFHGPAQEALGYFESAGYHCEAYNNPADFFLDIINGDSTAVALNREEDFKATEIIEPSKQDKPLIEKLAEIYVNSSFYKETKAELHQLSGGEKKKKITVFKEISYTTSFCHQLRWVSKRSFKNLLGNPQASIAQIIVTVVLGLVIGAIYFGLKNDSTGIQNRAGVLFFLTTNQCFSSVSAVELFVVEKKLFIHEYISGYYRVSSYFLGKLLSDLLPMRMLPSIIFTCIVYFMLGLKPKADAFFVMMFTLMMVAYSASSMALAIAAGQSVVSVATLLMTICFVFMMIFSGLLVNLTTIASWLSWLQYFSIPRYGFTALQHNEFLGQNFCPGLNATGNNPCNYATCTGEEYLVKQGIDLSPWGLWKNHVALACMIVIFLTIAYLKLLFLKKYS

CYP2C19 = CYP2C19 (Homo sapiens, UniProt P33261); assay: Enzyme systems in vitro: CYP2C19; type: in vitro ADME
Sequence of CYP2C19 (P33261 whole entry): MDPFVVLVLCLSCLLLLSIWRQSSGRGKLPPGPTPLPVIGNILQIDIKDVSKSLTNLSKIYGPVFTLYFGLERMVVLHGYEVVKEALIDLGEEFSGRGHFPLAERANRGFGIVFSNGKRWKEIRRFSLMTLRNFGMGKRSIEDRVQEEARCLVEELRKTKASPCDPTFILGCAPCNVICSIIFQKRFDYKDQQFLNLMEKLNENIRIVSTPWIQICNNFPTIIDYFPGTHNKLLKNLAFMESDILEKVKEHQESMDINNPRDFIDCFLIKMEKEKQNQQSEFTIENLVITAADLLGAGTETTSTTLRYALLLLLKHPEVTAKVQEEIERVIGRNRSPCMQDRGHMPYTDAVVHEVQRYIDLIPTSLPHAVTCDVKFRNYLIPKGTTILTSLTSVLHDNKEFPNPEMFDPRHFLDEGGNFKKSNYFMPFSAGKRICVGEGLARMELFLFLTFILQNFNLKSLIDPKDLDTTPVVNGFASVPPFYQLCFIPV

UGT1A1 = molecular target: T2, UGT1A1 (Homo sapiens, UniProt P22309); assay: Enzyme systems in vitro: UGT1A1; type: in vitro ADME
T2 sequence (P22309 26-533): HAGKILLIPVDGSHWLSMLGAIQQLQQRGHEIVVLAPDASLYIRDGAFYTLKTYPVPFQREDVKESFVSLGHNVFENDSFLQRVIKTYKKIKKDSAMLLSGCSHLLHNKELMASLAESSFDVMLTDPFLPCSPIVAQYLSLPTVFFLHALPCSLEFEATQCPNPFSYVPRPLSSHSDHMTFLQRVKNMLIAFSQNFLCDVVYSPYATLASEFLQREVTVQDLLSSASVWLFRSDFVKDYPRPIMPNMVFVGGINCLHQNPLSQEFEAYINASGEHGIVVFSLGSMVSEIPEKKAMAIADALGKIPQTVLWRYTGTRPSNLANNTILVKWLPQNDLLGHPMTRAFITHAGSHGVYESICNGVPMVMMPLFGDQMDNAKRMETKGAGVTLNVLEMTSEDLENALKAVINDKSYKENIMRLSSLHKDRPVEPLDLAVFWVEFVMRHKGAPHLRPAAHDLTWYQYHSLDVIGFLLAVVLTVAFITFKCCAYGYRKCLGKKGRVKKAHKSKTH

UGT1A9 = molecular target: T3, UGT1A9 (Homo sapiens, UniProt O60656); assay: Enzyme systems in vitro: UGT1A9; type: in vitro ADME
T3 sequence (O60656 26-530): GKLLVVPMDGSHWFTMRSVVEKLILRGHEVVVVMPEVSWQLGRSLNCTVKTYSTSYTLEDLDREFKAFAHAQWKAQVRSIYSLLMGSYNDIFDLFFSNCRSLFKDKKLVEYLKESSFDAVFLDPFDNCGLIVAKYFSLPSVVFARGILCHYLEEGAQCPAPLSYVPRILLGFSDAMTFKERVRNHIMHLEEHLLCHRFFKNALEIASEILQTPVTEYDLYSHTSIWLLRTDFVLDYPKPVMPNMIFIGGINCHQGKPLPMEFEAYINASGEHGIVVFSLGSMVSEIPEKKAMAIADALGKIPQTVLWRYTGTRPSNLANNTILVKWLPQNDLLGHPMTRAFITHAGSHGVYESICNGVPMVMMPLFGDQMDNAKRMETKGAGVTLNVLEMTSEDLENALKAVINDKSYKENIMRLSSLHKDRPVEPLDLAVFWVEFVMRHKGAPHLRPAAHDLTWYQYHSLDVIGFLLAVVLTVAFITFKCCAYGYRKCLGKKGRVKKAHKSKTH

rat bone marrow = assay: in vivo rat bone marrow micronucleus assay
[4] = 50 mg base/kg, GD 18, belumosudil 50 mg base/kg oral
[5] = 50 mg/kg/day, GD 6, belumosudil 50 mg base/kg oral
[6] = 125 mg/kg/day, GD 6, belumosudil 125 mg base/kg oral
[7] = 125 mg/kg/day, GD 18, belumosudil 125 mg base/kg oral
[8] = 225 mg/kg/day, GD 6, belumosudil 225 mg base/kg oral
[9] = 225 mg/kg/day, GD 18, belumosudil 225 mg base/kg oral
[10] = Group 14 (50 mg base/kg/day), Day 1
[11] = single oral dose of radiolabeled belumosudil

## CC(C)NC(=O)COc1cccc(-c2nc(Nc3ccc4[nH]ncc4c3)c3ccccc3n2)c1 [belumosudil, 2-{3-[4-(1H-indazol-5-ylamino)-2-quinazolinyl]phenoxy}-N-(propan-2-yl) acetamide]
[1]; [4]
  Cmax: 437 ng/mL
  AUC(0-t): 1590 ng·h/mL
[1]; [5]
  Cmax: 919 ng/mL
  AUC(0-t): 3870 ng·h/mL
[1]; [6]
  Cmax: 3030 ng/mL
  AUC(0-t): 21400 ng·h/mL
[1]; [7]
  Cmax: 1670 ng/mL
  AUC(0-t): 9290 ng·h/mL
[1]; [8]
  Cmax: 4140 ng/mL
  AUC(0-t): 55700 ng·h/mL
[1]; [9]
  Cmax: 2580 ng/mL
  AUC(0-t): 23500 ng·h/mL
[1]; pregnant rabbits
  accumulation after multiple dosing of belumosudil: no apparent accumulation
[2]; Day 1, belumosudil 50 mg base/kg, F
  AUC0-24 in rat plasma: 49200 ng·h/mL
[2]; Day 1, belumosudil 50 mg base/kg, M
  AUC0-24 in rat plasma: 20100 ng·h/mL
[2]; Day 1, belumosudil 150 mg base/kg, F
  AUC0-24 in rat plasma: 95700 ng·h/mL
[2]; Day 1, belumosudil 150 mg base/kg, M
  AUC0-24 in rat plasma: 81600 ng·h/mL
[2]; Day 1, belumosudil 275 mg base/kg, F
  AUC0-24 in rat plasma: 122000 ng·h/mL
[2]; Day 1, belumosudil 275 mg base/kg, M
  AUC0-24 in rat plasma: 96400 ng·h/mL
[2]; Day 14, belumosudil 50 mg base/kg, F
  AUC0-24 in rat plasma: 26200 ng·h/mL
[2]; Day 14, belumosudil 150 mg base/kg, F
  AUC0-24 in rat plasma: 99500 ng·h/mL
[2]; Day 14, belumosudil 275 mg base/kg, F
  AUC0-24 in rat plasma: 209000 ng·h/mL
[2]; Day 70, belumosudil 50 mg base/kg, M
  AUC0-24 in rat plasma: 21600 ng·h/mL
[2]; Day 70, belumosudil 150 mg base/kg, M
  AUC0-24 in rat plasma: 70100 ng·h/mL
[2]; Day 70, belumosudil 275 mg base/kg, M
  AUC0-24 in rat plasma: 191000 ng·h/mL
[2]; [10]
  sex difference in AUC0-24, females higher than males: ~2.44 fold
  sex difference in Cmax, females higher than males: approximately 2.10 fold
[2]; female, Sprague-Dawley, oral, 150 mg base/kg
  Cmax: 9860 ng/mL
[2]; female, Sprague-Dawley, oral, 150 mg base/kg/day, females
  AUC(0-t): 99500 ng·h/mL
[2]; female, Sprague-Dawley, po, 50 mg/kg/day
  Cmax: 3200 ng/mL
[2]; female, Sprague-Dawley, po, 50 mg/kg/day, 50 mg base/kg/day, females
  AUC(0-t): 26200 ng·h/mL
[2]; female, Sprague-Dawley, po, 275 mg/kg/day, Day 14, belumosudil 275 mg base/kg, F
  Cmax: 14900 ng/mL
[2]; female, Sprague-Dawley, po, 275 mg/kg/day, 275 mg base/kg/day, females
  AUC(0-t): 209000 ng·h/mL
[2]; female, po, 50 mg/kg/day
  Cmax: 4540 ng/mL
[2]; female, po, 150 mg/kg/day
  Cmax: 5670 ng/mL
[2]; female, po, 275 mg/kg/day, Day 1, belumosudil 275 mg base/kg, F
  Cmax: 7050 ng/mL
[2]; male, Sprague-Dawley, po, 50 mg/kg/day
  Cmax: 2480 ng/mL
[2]; male, Sprague-Dawley, po, 50 mg/kg/day, 50 mg base/kg/day, males
  AUC(0-t): 21600 ng·h/mL
[2]; male, Sprague-Dawley, po, 150 mg/kg/day
  Cmax: 10100 ng/mL
[2]; male, Sprague-Dawley, po, 150 mg/kg/day, 150 mg base/kg/day, males
  AUC(0-t): 70100 ng·h/mL
[2]; male, po, 50 mg/kg/day
  Cmax: 2170 ng/mL
[2]; male, po, 150 mg/kg/day
  Cmax: 5370 ng/mL
[2]; male, po, 275 mg/kg/day, Day 1, belumosudil 275 mg base/kg, M
  Cmax: 7200 ng/mL
[2]; male, po, 275 mg/kg/day, Day 70, belumosudil 275 mg base/kg, M
  Cmax: 20400 ng/mL
[3]; human, in vivo, oral, single dose, read-out: delay of median Tmax with high-fat and high-calorie meal
  Tmax: 30 min
[3]; human, in vivo, single dose, geo CV % 67.7%, read-out: geometric mean volume of distribution
  Vd: 184 L
[3]; single dose
  increase in AUC with high-fat and high-calorie meal compared to fasted state: 2 times
  increase in Cmax with high-fat and high-calorie meal compared to fasted state: 2.2 times
  mean (% CV) bioavailability: 64% (17%)
[3]; [11]
  radioactivity recovered in feces: 85%
  radioactivity recovered in urine: less than 5%
  recovered in feces as unchanged: 30%
BCRP
  BCRP inhibition: inhibits
CYP2C19
  CYP2C19 inhibition: inhibitor
UGT1A1
  UGT1A1 inhibition: inhibitor
UGT1A9
  UGT1A9 inhibition: inhibitor
Rat bone marrow
  genotoxicity, bone marrow micronucleus assay: not genotoxic
